Results taken from US12441703B2, “Carboxamides as modulators of sodium channels” (VERTEX PHARMACEUTICALS INCORPORATED, priority 2019, dated 2025).

What follows are compounds tested against human NaV 1.8 (Homo sapiens, UniProt Q9Y5Y9) (assay: E-VIPR assay for detecting and measuring NaV inhibition properties). Conditions: E-VIPR assay conducted in the presence of human serum; HEK cells expressing truncated human NaV 1.8; read-out: IC50.
Type: cell-based
Procedure, shortened: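 Membrane-potential (coumarin/oxonol) readout after 10 s of 10 Hz biphasic electrical stimulation on E-VIPR. Compounds: 11-point 3-fold dilutions, […], 0.625% DMSO, 30 min at room temperature, human serum optional. Cells: HEK expressing truncated human NaV1.8 co-transduced with KIR2.1.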

Chain of human NaV 1.8 (Q9Y5Y9 whole entry, looked up, the tested form may be a part): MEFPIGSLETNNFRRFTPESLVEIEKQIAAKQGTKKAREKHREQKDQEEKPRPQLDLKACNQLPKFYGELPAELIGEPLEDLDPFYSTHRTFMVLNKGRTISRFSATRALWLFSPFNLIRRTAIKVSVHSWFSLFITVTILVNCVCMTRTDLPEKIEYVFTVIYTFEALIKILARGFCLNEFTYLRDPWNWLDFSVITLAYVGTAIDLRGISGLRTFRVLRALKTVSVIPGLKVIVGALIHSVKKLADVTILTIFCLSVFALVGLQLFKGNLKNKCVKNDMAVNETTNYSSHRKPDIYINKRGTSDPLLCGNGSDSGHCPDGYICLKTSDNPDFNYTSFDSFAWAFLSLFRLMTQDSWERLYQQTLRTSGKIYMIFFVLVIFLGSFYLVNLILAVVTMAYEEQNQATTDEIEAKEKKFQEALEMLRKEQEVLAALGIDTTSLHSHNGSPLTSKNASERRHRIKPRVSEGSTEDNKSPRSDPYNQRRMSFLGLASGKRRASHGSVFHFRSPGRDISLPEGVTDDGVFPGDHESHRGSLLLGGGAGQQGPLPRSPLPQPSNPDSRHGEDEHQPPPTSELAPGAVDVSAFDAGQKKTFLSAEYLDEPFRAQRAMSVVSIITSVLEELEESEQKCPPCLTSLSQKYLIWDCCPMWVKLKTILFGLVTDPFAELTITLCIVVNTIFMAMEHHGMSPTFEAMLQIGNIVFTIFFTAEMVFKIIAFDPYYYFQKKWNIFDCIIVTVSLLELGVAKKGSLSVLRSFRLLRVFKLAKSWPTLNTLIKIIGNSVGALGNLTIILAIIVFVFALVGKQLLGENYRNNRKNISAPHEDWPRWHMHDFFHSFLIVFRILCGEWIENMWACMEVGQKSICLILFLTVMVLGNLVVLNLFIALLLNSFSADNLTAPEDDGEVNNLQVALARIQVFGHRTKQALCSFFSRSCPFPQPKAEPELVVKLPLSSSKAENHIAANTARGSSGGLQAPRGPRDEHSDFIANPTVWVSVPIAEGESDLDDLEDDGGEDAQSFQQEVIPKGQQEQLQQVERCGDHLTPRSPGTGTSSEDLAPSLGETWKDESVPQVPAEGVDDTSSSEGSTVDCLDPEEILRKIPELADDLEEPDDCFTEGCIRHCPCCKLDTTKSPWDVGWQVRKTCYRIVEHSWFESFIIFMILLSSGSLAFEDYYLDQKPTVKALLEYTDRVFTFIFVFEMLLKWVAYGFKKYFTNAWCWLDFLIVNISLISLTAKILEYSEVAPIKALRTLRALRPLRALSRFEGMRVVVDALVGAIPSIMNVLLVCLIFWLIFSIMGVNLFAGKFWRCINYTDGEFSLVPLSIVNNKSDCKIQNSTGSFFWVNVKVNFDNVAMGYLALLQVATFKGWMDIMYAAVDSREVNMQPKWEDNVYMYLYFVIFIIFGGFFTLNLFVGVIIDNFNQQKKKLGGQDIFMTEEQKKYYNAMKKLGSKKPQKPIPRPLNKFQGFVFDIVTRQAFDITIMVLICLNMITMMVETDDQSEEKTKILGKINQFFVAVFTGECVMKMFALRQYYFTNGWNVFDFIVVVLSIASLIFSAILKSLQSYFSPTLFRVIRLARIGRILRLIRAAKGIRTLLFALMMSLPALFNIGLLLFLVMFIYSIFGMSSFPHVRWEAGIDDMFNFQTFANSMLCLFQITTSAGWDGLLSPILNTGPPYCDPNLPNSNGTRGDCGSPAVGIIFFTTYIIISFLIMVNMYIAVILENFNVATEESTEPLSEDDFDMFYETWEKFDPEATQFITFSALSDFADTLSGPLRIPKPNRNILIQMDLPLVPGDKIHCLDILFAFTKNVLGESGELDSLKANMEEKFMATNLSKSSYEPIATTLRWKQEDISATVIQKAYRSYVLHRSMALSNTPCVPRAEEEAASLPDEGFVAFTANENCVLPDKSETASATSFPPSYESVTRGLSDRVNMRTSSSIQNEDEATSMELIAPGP

`[2H]C([2H])([2H])Oc1cc(OC(F)(F)F)ccc1Oc1cc(-c2ccc(C)cc2)cc(F)c1C(=O)Nc1ccnc(C(N)=O)c1` [Compound 88, 4-[[2-fluoro-4-(p-tolyl)-6-[2-(trideuteriomethoxy)-4-(trifluoromethoxy)phenoxy]benzoyl]amino]pyridine-2-carboxamide] and `[2H]C([2H])([2H])Oc1cc(OC(F)(F)F)ccc1Oc1cc(-c2ccc(F)cc2)cc(F)c1C(=O)Nc1ccnc(C(N)=O)c1` [Compound 89, 4-[[2-fluoro-4-(4-fluorophenyl)-6-[2-(trideuteriomethoxy)-4-(trifluoromethoxy)phenoxy]benzoyl]amino]pyridine-2-carboxamide] are within 1.5-fold of each other in IC50: 39 nM for the first, 36 nM for the second.

Going from `[2H]C([2H])([2H])Oc1cc(OC(F)(F)F)ccc1Oc1cc(-c2cccnc2)cc(F)c1C(=O)Nc1ccnc(C(N)=O)c1` [Compound 90, 4-[[2-fluoro-4-(3-pyridyl)-6-[2-(trideuteriomethoxy)-4-(trifluoromethoxy)phenoxy]benzoyl]amino]pyridine-2-carboxamide] to `[2H]C([2H])([2H])Oc1cc(OC(F)(F)F)ccc1Oc1cc(-c2ccncc2)cc(F)c1C(=O)Nc1ccnc(C(N)=O)c1` [Compound 91, 4-[[2-fluoro-4-(4-pyridyl)-6-[2-(trideuteriomethoxy)-4-(trifluoromethoxy)phenoxy]benzoyl]amino]pyridine-2-carboxamide], the IC50 rises from 210 nM to 440 nM (2.1-fold).

Going from `[2H]C([2H])([2H])Oc1cc(OC(F)(F)F)ccc1Oc1cc(-c2ccccc2)cc(F)c1C(=O)Nc1ccnc(C(N)=O)c1` [Compound 92, 4-[[2-fluoro-4-phenyl-6-[2-(trideuteriomethoxy)-4-(trifluoromethoxy)phenoxy]benzoyl]amino]pyridine-2-carboxamide] to `[2H]C([2H])([2H])Oc1cc(OC(F)(F)F)ccc1Oc1cc(-c2cccc(C(F)(F)F)c2)cc(F)c1C(=O)Nc1ccnc(C(N)=O)c1` [Compound 94, 4-[[2-fluoro-6-[2-(trideuteriomethoxy)-4-(trifluoromethoxy)phenoxy]-4-[3-(trifluoromethyl)phenyl]benzoyl]amino]pyridine-2-carboxamide], the IC50 falls from 63 nM to 39 nM (1.6-fold). The second is the more potent here.

Going from `[2H]C([2H])([2H])Oc1cc(OC(F)(F)F)ccc1Oc1cc(-c2ccc(C(F)(F)F)cc2)cc(F)c1C(=O)Nc1ccnc(C(N)=O)c1` [Compound 93, 4-[[2-fluoro-6-[2-(trideuteriomethoxy)-4-(trifluoromethoxy)phenoxy]-4-[4-(trifluoromethyl)phenyl]benzoyl]amino]pyridine-2-carboxamide] to `[2H]C([2H])([2H])Oc1cc(OC(F)(F)F)ccc1Oc1cc(-c2ccccc2C(F)(F)F)cc(F)c1C(=O)Nc1ccnc(C(N)=O)c1` [Compound 95, 4-[[2-fluoro-6-[2-(trideuteriomethoxy)-4-(trifluoromethoxy)phenoxy]-4-[2-(trifluoromethyl)phenyl]benzoyl]amino]pyridine-2-carboxamide], the IC50 rises from 13 nM to 140 nM (11-fold).

`[2H]C([2H])([2H])Oc1cc(OC(F)(F)F)ccc1Oc1cc(C2CCCC2)cc(F)c1C(=O)Nc1ccnc(C(N)=O)c1` [Compound 96, 4-[[4-Cyclopentyl-2-Fluoro-6-[2-(Trideuteriomethoxy)-4-(Trifluoromethoxy)Phenoxy]Benzoyl]Amino]Pyridine-2-Carboxamide] and `[2H]C([2H])([2H])Oc1cc(OC(F)(F)F)ccc1Oc1cc(C2CCCCC2)cc(F)c1C(=O)Nc1ccnc(C(N)=O)c1` [Compound 97] are within 1.5-fold of each other in IC50: 13 nM for the first, 14 nM for the second.

Going from `[2H]C([2H])([2H])Oc1cc(OC(F)(F)F)ccc1Oc1cc(C2CCC(F)(F)CC2)cc(F)c1C(=O)Nc1ccnc(C(N)=O)c1` [Compound 98] to `[2H]C([2H])([2H])Oc1cc(OC(F)(F)F)ccc1Oc1cc(C(F)(F)F)c(F)cc1C(=O)Nc1ccnc(C(N)=O)c1` [Compound 99, 4-[[5-fluoro-2-[2-(trideuteriomethoxy)-4-(trifluoromethoxy)phenoxy]-4-(trifluoromethyl)benzoyl]amino]pyridine-2-carboxamide], the IC50 rises from 23 nM to 380 nM (17-fold).

Going from `[2H]C([2H])([2H])Oc1cc(OC(F)(F)F)ccc1Oc1cc(C(F)(F)F)c(F)cc1C(=O)Nc1ccc(C(N)=O)nc1` [Compound 100, 5-[[5-fluoro-2-[2-(trideuteriomethoxy)-4-(trifluoromethoxy)phenoxy]-4-(trifluoromethyl)benzoyl]amino]pyridine-2-carboxamide] to `[2H]C([2H])([2H])Oc1cc(OC(F)(F)F)ccc1Oc1ccc(C(F)(F)F)cc1C(=O)Nc1ccc(C(N)=O)nc1` [Compound 106], the IC50 rises from 630 nM to 1400 nM (2.2-fold). The first is the more potent here.

`Cc1cc(F)ccc1Oc1ccc(C(F)(F)F)c(F)c1C(=O)Nc1ccc(C(N)=O)nc1` [Compound 101, 5-[[2-fluoro-6-(4-fluoro-2-methyl-phenoxy)-3-(trifluoromethyl)benzoyl]amino]pyridine-2-carboxamide] and `COc1cc(F)ccc1Oc1ccc(C(F)(F)F)c(F)c1C(=O)Nc1ccc(C(N)=O)nc1` [Compound 104, 5-[[2-fluoro-6-(4-fluoro-2-methoxy-phenoxy)-3-(trifluoromethyl)benzoyl]amino]pyridine-2-carboxamide] are within 1.5-fold of each other in IC50: 525 nM for the first, 380 nM for the second.

First: Cc1cc(F)ccc1Oc1ccc(C(F)(F)F)c(F)c1C(=O)Nc1ccnc(C(N)=O)c1 [Compound 102, 4-[[2-fluoro-6-(4-fluoro-2-methyl-phenoxy)-3-(trifluoromethyl)benzoyl]amino]pyridine-2-carboxamide]
Second: COc1cc(F)ccc1Oc1ccc(C(F)(F)F)c(F)c1C(=O)Nc1ccnc(C(N)=O)c1 [Compound 103, 4-[[2-fluoro-6-(4-fluoro-2-methoxy-phenoxy)-3-(trifluoromethyl)benzoyl]amino]pyridine-2-carboxamide]
The IC50 of the first is 2.8-fold higher: 36 nM for the first, 13 nM for the second. The second is the more potent here.

Going from `[2H]C([2H])([2H])Oc1cc(OC(F)(F)F)ccc1Oc1ccc(C(F)(F)F)cc1C(=O)Nc1ccnc(C(N)=O)c1` [Compound 105, 4-[[2-[2-(trideuteriomethoxy)-4-(trifluoromethoxy)phenoxy]-5-(trifluoromethyl)benzoyl]amino]pyridine-2-carboxamide] to `[2H]C([2H])([2H])Oc1cc(OC(F)(F)F)ccc1Oc1ccc(C(F)(F)F)c(C)c1C(=O)Nc1ccnc(C(N)=O)c1` [Compound 117], the IC50 falls from 73 nM to 2 nM (36-fold). The second is the more potent here.

First: NC(=O)c1cc(NC(=O)c2ccc(C(F)(F)F)cc2Oc2ccc(F)c(Cl)c2)ccn1 [Compound 107, 4-[[2-(3-chloro-4-fluoro-phenoxy)-4-(trifluoromethyl)benzoyl]amino]pyridine-2-carboxamide]
Second: CC(C)Oc1ccc(Oc2cc(C(F)(F)F)ccc2C(=O)Nc2ccnc(C(N)=O)c2)cc1Cl [Compound 108, 4-[[2-(3-chloro-4-isopropoxy-phenoxy)-4-(trifluoromethyl)benzoyl]amino]pyridine-2-carboxamide]
The IC50 of the first is lower: 2380 nM for the first, over 3000 nM for the second.

`NC(=O)c1cc(NC(=O)c2ccc(C(F)(F)F)cc2Oc2ccc(OC3CCCCC3)cc2)ccn1` [Compound 109, 4-[[2-[4-(cyclohexoxy)phenoxy]-4-(trifluoromethyl)benzoyl]amino]pyridine-2-carboxamide] and `NC(=O)c1cc(NC(=O)c2ccc(C(F)(F)F)cc2Oc2cccc(C3CCCCC3)c2)ccn1` [Compound 110, 4-[[2-(3-cyclohexylphenoxy)-4-(trifluoromethyl)benzoyl]amino]pyridine-2-carboxamide] cannot be ordered by IC50: over 3000 nM for the first, over 3000 nM for the second.

`NC(=O)c1cc(NC(=O)c2ccc(C(F)(F)F)cc2Oc2ccc(F)cc2F)ccn1` [Compound 111, 4-[[2-(2,4-difluorophenoxy)-4-(trifluoromethyl)benzoyl]amino]pyridine-2-carboxamide] and `Cc1cc(F)ccc1Oc1cc(C(F)(F)F)ccc1C(=O)Nc1ccnc(C(N)=O)c1` [Compound 113, 4-[[2-(4-fluoro-2-methyl-phenoxy)-4-(trifluoromethyl)benzoyl]amino]pyridine-2-carboxamide] cannot be ordered by IC50: over 3000 nM for the first, over 3000 nM for the second.

Going from `CC(F)(F)c1cc(F)ccc1Oc1cc(C(F)(F)F)ccc1C(=O)Nc1ccnc(C(N)=O)c1` [Compound 112, 4-[[2-[2-(1,1-difluoroethyl)-4-fluoro-phenoxy]-4-(trifluoromethyl)benzoyl]amino]pyridine-2-carboxamide] to `COc1c(Oc2ccc(C(F)(F)F)c(C)c2C(=O)Nc2ccnc(C(N)=O)c2)ccc(F)c1F` [Compound 120, 4-[[6-(3,4-difluoro-2-methoxy-phenoxy)-2-methyl-3-(trifluoromethyl)benzoyl]amino]pyridine-2-carboxamide], the IC50 falls from over 3000 nM to 20 nM.

First: [2H]C([2H])([2H])Oc1cc(OC(F)(F)F)ccc1Oc1ccc2c(c1C(=O)Nc1ccnc(C(N)=O)c1)OC(F)(F)O2 [Compound 114, 4-[[2,2-difluoro-5-[2-(trideuteriomethoxy)-4-(trifluoromethoxy)phenoxy]-1,3-benzodioxole-4-carbonyl]amino]pyridine-2-carboxamide]
Second: [2H]C([2H])([2H])Oc1cc(OC(F)(F)F)ccc1Oc1ccc2c(c1C(=O)Nc1ccc(C(N)=O)nc1)OC(F)(F)O2 [Compound 115]
The IC50 of the first is lower: 510 nM for the first, over 3000 nM for the second. The first is the more potent here.

First: [2H]C([2H])([2H])Oc1cc(OC(F)(F)F)ccc1Oc1ccc(C(F)(F)F)c(C)c1C(=O)Nc1ccc(C(N)=O)nc1 [Compound 116, 5-[[2-methyl-6-[2-(trideuteriomethoxy)-4-(trifluoromethoxy)phenoxy]-3-(trifluoromethyl)benzoyl]amino]pyridine-2-carboxamide]
Second: COc1c(Oc2ccc(C(F)(F)F)c(F)c2C(=O)Nc2ccc(C(N)=O)nc2)ccc(F)c1F [Compound 118, 5-[[6-(3,4-difluoro-2-methoxy-phenoxy)-2-fluoro-3-(trifluoromethyl)benzoyl]amino]pyridine-2-carboxamide]
The IC50 of the first is 28-fold lower: 25 nM for the first, 695 nM for the second. The first is the more potent here.

`COc1cc(OC(F)(F)F)ccc1Oc1cc(Br)cc(F)c1C(=O)Nc1ccnc(C(N)=O)c1` [Compound 119, 4-[[4-bromo-2-fluoro-6-[2-methoxy-4-(trifluoromethoxy)phenoxy]benzoyl]amino]pyridine-2-carboxamide] showed an IC50 of 8 nM.
